Measured values as given in patent US20260242416A1, “ANTIMICROBIAL PEPTIDES” (priority 2023, published 2026).
Where a SMILES comes first, the peptide text is derived from it.

What follows are compounds tested on E. coli ATCC 25922, Salmonella Enteritidis, S. aureus ATCC 29213 (assay: Broth microdilution, panel result (at least one / all strains), Example 2). Conditions: Table 14; against at least one of E. coli ATCC 25922, Salmonella Enteritidis, S. aureus ATCC 29213.
Type: cell-based
Parameters: key to inhibitory activity (asterisk): *Indicates inhibitory activity
Procedure: The antimicrobial activity of the putative AMPs was determined by a broth microdilution assay as described by the Clinical and Laboratory Standards Institute, with the published adaptations for testing of cationic peptides. Escherichia coli 25922 and Staphylococcus aureus 29213 isolates were purchased from the American Type Culture Collection (ATCC; Manassas, VA, USA). A human clinical isolate of Salmonella enterica serovar Enteritidis was provided by the BC Centre for Disease Control. Bacteria from stocks stored at −80° C. were streaked onto nonselective Columbia blood agar with 5% sheep blood (Oxoid) and incubated overnight at 37° C. Next, 2-4 colonies were streaked onto a new agar plate to ensure uniform health of colonies used in the broth microdilution assay. Isolated colonies were suspended in MHB and the optical density was measured with a spectrophotometer to create an initial inoculum concentration of approximately 1×10^8 cfu/mL. The inoculum was diluted 1:250 to a final concentration of 2-8×10^5 cfu/mL, which was confirmed by performing a Total Viability Count (TVC). The TVC consisted of plating a 1:1000 dilution of the final inoculum on nonselective media and was also used to confirm the health and purity of the inoculum in each trial.
Lyophilized 80 μg peptide aliquots synthesized by GenScript (Piscataway, NJ, USA) were resuspended to 1.28 mg/mL with UltraPure water (Thermo Fisher Scientific, Waltham, MA, USA) and serially diluted in polypropylene 96-well microtiter plates (Greiner Bio-One #650261, Kremsmunster, Austria) from 128 down to 0.5 μg/mL. Two columns per plate were reserved for growth and sterility controls. Inoculum was added to the wells containing the peptide and the growth control. Plates were incubated for 20-24 h at 37° C. The minimum inhibitory concentration (MIC) was determined as the lowest peptide concentration where there was no visible bacterial growth.

Structure (SMILES)	inhibitory activity (asterisk)
CC[C@H](C)[C@H](NC(=O)CNC(=O)[C@H](CCCNC(=N)N)NC(=O)[C@H](CCCCN)NC(=O)[C@H](CCCCN)NC(=O)[C@H](CCCNC(=N)N)NC(=O)[C@@H]1CCCN1C(=O)[C@@H](NC(=O)[C@H](CCSC)NC(=O)[C@H](CC(C)C)NC(=O)[C@@H](N)CCCCN)[C@@H](C)CC)C(=O)N[C@@H](Cc1ccccc1)C(=O)NCC(=O)NCC(=O)N[C@@H](CC(C)C)C(=O)N[C@@H](CC(C)C)C(=O)N[C@@H](CCCCN)C(=O)N[C@H](C(=O)NCC(=O)N[C@@H](CCCCN)C(=O)N[C@@H](CCCCN)C(=O)N[C@H](C(=O)N[C@@H](C)C(=O)N[C@@H](CS)C(=O)NCC(=O)N[C@@H](CC(C)C)C(=O)N[C@@H](CO)C(=O)NCC(=O)N[C@@H](CC(C)C)C(=O)N[C@@H](CS)C(=O)O)[C@@H](C)CC)C(C)C [OdTo4] (H-KLMIPRKKRGIFGGLLKVGKKIACGLSGLC-OH; N-terminus and C-terminus assumed)	190.* KLMIPRKKRGIFGGLLKVGKKIACGLSGLC
CC[C@H](C)[C@H](NC(=O)CN)C(=O)N[C@@H](CC(C)C)C(=O)N[C@@H](CCCNC(=N)N)C(=O)N[C@@H](CO)C(=O)N[C@@H](CC(C)C)C(=O)NCC(=O)N[C@@H](Cc1c[nH]c2ccccc12)C(=O)N[C@H](C(=O)N[C@@H](CCC(N)=O)C(=O)N[C@@H](CCSC)C(=O)N1CCC[C@H]1C(=O)N[C@@H](CCCNC(=N)N)C(=O)N[C@@H](CO)C(=O)N[C@@H](CCCNC(=N)N)C(=O)N[C@@H](CCCNC(=N)N)C(=O)N[C@@H](CCCNC(=N)N)C(=O)N[C@@H](Cc1c[nH]cn1)C(=O)N[C@@H](CCCNC(=N)N)C(=O)O)[C@@H](C)CC [AnFI2, GILRSLGWIQMPRSRRRHR] (H-GILRSLGWIQMPRSRRRHR-OH; N-terminus and C-terminus assumed)	721.* GILRSLGWIQMPRSRRRHR
CC[C@H](C)[C@H](NC(=O)[C@H](CCCCN)NC(=O)[C@@H](N)CCCNC(=N)N)C(=O)N[C@H](C(=O)N[C@@H](C)C(=O)N[C@H](C(=O)N[C@@H](CO)C(=O)N[C@H](C(=O)N[C@@H](Cc1c[nH]cn1)C(=O)N[C@@H](CCCCN)C(=O)N[C@@H](CC(C)C)C(=O)N[C@@H](CS)C(=O)N[C@@H](CCCNC(=N)N)C(=O)N[C@H](C(=O)N[C@@H](CCCCN)C(=O)N[C@@H](CCCNC(=N)N)C(=O)O)C(C)C)C(C)C)C(C)C)[C@@H](C)CC [BoUs1, RKIIAVSVHKLCRVKR] (H-RKIIAVSVHKLCRVKR-OH; N-terminus and C-terminus assumed)	815.* RKIIAVSVHKLCRVKR
CC[C@H](C)[C@H](NC(=O)CN)C(=O)N[C@@H](Cc1ccc(O)cc1)C(=O)N[C@H](C(=O)NCC(=O)N[C@@H](CCCNC(=N)N)C(=O)N[C@@H](CC(C)C)C(=O)N[C@@H](CC(C)C)C(=O)N1CCC[C@H]1C(=O)N[C@H](C(=O)N[C@@H](Cc1ccc(O)cc1)C(=O)N[C@H](C(=O)N1CCC[C@H]1C(=O)N[C@@H](CCC(N)=O)C(=O)N1CCC[C@H]1C(=O)N[C@@H](CCCNC(=N)N)C(=O)N1CCC[C@H]1C(=O)N1CCC[C@H]1C(=O)N[C@@H](Cc1c[nH]cn1)C(=O)N1CCC[C@H]1C(=O)N[C@@H](CCCNC(=N)N)C(=O)N[C@@H](CC(C)C)C(=O)N[C@@H](CCCNC(=N)N)C(=O)N[C@@H](CCCNC(=N)N)C(=O)O)[C@@H](C)CC)C(C)C)[C@@H](C)O [ApCe1] (H-GIYTGRLLPVYIPQPRPPHPRLRR-OH; N-terminus and C-terminus assumed)	695.* GIYTGRLLPVYIPQPRPPHPRLRR
CC[C@H](C)[C@H](NC(=O)[C@H](CCCCN)NC(=O)[C@H](CS)NC(=O)[C@H](CCCCN)NC(=O)[C@H](CC(C)C)NC(=O)[C@H](CC(N)=O)NC(=O)[C@H](CC(=O)O)NC(=O)[C@H](CC(C)C)NC(=O)[C@H](CC(C)C)NC(=O)[C@@H](NC(=O)[C@@H](NC(=O)[C@H](C)NC(=O)[C@@H](NC(=O)[C@H](CC(N)=O)NC(=O)[C@H](CCCCN)NC(=O)[C@H](C)NC(=O)[C@@H](NC(=O)[C@H](CC(N)=O)NC(=O)[C@H](CCCCN)NC(=O)[C@H](C)NC(=O)[C@@H](NC(=O)[C@H](CC(=O)O)NC(=O)[C@H](CCSC)NC(=O)[C@H](Cc1ccccc1)NC(=O)CN)[C@@H](C)O)C(C)C)C(C)C)C(C)C)[C@@H](C)O)C(=O)N[C@H](C(=O)N[C@@H](CCCCN)C(=O)N[C@@H](C)C(=O)N[C@@H](CS)C(=O)O)[C@@H](C)O [OdMa13] (H-GFMDTAKNVAKNVAVTLLDNLKCKITKAC-OH; N-terminus and C-terminus assumed)	1095.* GFMDTAKNVAKNVAVTLLDNLKCKITKAC
CC(C)C[C@H](NC(=O)[C@@H](NC(=O)[C@H](Cc1ccccc1)NC(=O)[C@H](C)NC(=O)CN)C(C)C)C(=O)N[C@@H](Cc1c[nH]c2ccccc12)C(=O)NCC(=O)N1CCC[C@H]1C(=O)N[C@H](C(=O)N1CCC[C@H]1C(=O)N[C@@H](CCCNC(=N)N)C(=O)N1CCC[C@H]1C(=O)N[C@@H](CCCNC(=N)N)C(=O)N[C@@H](CCCNC(=N)N)C(=O)N[C@@H](CCCNC(=N)N)C(=O)O)[C@@H](C)O [DiLo1, GAFVLWGPTPRPRRR] (H-GAFVLWGPTPRPRRR-OH; N-terminus and C-terminus assumed)	864.* GAFVLWGPTPRPRRR
CC[C@H](C)[C@H](NC(=O)[C@@H](N)Cc1ccccc1)C(=O)N[C@@H](CCCCN)C(=O)N[C@H](C(=O)N[C@@H](CCC(N)=O)C(=O)N[C@H](C(=O)N[C@@H](CC(C)C)C(=O)N[C@@H](CCCCN)C(=O)N[C@@H](Cc1c[nH]cn1)C(=O)N[C@@H](CC(C)C)C(=O)N[C@H](C(=O)N[C@@H](C)C(=O)NCC(=O)N[C@H](C(=O)N[C@@H](CCCNC(=N)N)C(=O)N[C@H](C(=O)N[C@@H](C)C(=O)N[C@@H](CCCNC(=N)N)C(=O)NCC(=O)N[C@@H](CC(C)C)C(=O)N[C@@H](CC(=O)O)C(=O)N[C@@H](Cc1c[nH]c2ccccc12)C(=O)N[C@@H](CCCCN)C(=O)N[C@@H](Cc1c[nH]c2ccccc12)C(=O)N[C@@H](CCCNC(=N)N)C(=O)O)C(C)C)C(C)C)C(C)C)C(C)C)[C@@H](C)O [CaCa2] (H-FIKTQVLKHLVAGVRVARGLDWKWR-OH; N-terminus and C-terminus assumed)	819.* FIKTQVLKHLVAGVRVARGLDWKWR
CC[C@H](C)[C@H](NC(=O)[C@H](CO)NC(=O)[C@@H]1CCCN1C(=O)[C@H](CC(C)C)NC(=O)[C@@H](NC(=O)[C@H](CCCCN)NC(=O)[C@H](C)NC(=O)[C@H](C)NC(=O)[C@H](CC(C)C)NC(=O)CNC(=O)[C@H](C)NC(=O)[C@@H](NC(=O)[C@@H](NC(=O)[C@@H]1CCCN1C(=O)[C@H](CC(C)C)NC(=O)[C@@H](N)Cc1ccccc1)C(C)C)C(C)C)C(C)C)C(=O)N[C@H](C(=O)N[C@@H](CS)C(=O)N[C@@H](C)C(=O)N[C@H](C(=O)N[C@H](C(=O)N[C@@H](CCCCN)C(=O)N[C@@H](CCCCN)C(=O)N[C@@H](CS)C(=O)O)[C@@H](C)O)C(C)C)[C@@H](C)CC [RaCa15] (H-FLPVVAGLAAKVLPSIICAVTKKC-OH; N-terminus and C-terminus assumed)	1098.* FLPVVAGLAAKVLPSIICAVTKKC
CC[C@H](C)[C@H](NC(=O)[C@H](CCCCN)NC(=O)[C@H](CS)NC(=O)[C@H](Cc1ccccc1)NC(=O)[C@H](CCCCN)NC(=O)[C@H](CCCNC(=N)N)NC(=O)[C@H](CO)NC(=O)[C@H](Cc1ccc(O)cc1)NC(=O)CNC(=O)[C@H](CS)NC(=O)[C@@H]1CCCN1C(=O)[C@H](C)NC(=O)[C@@H](NC(=O)[C@H](C)NC(=O)[C@H](Cc1ccccc1)NC(=O)[C@H](Cc1ccccc1)NC(=O)[C@H](Cc1ccccc1)NC(=O)[C@H](CCCNC(=N)N)NC(=O)[C@@H](N)CCCNC(=N)N)[C@@H](C)O)C(=O)N[C@H](C(=O)N[C@@H](CCCNC(=N)N)C(=O)N[C@@H](CCCNC(=N)N)C(=O)N[C@@H](CCCCN)C(=O)N[C@@H](CCCNC(=N)N)C(=O)O)[C@@H](C)O [CaCa4] (H-RRFFFATAPCGYSRKFCKITRRKR-OH; N-terminus and C-terminus assumed)	816.* RRFFFATAPCGYSRKFCKITRRKR
CC[C@H](C)[C@H](NC(=O)CN)C(=O)N[C@@H](CC(C)C)C(=O)N[C@@H](CC(C)C)C(=O)N[C@@H](CC(N)=O)C(=O)N[C@H](C(=O)N[C@@H](CC(C)C)C(=O)N[C@@H](CCCCN)C(=O)NCC(=O)N[C@@H](C)C(=O)N[C@@H](C)C(=O)N[C@@H](CCCCN)C(=O)N[C@@H](CC(N)=O)C(=O)N[C@H](C(=O)N[C@@H](C)C(=O)NCC(=O)N[C@H](C(=O)N[C@@H](CC(C)C)C(=O)N[C@@H](CC(C)C)C(=O)N[C@@H](CC(=O)O)C(=O)N[C@@H](CCCCN)C(=O)N[C@@H](CC(C)C)C(=O)N[C@@H](CCCCN)C(=O)N[C@@H](CS)C(=O)N[C@@H](CCCCN)C(=O)N[C@H](C(=O)N[C@H](C(=O)NCC(=O)NCC(=O)N[C@@H](CS)C(=O)O)[C@@H](C)O)[C@@H](C)CC)C(C)C)C(C)C)[C@@H](C)O [PeNi8] (H-GILLNTLKGAAKNVAGVLLDKLKCKITGGC-OH; N-terminus and C-terminus assumed)	1097.* GILLNTLKGAAKNVAGVLLDKLKCKITGGC

Same assay, conditions: panel of E. coli, Salmonella Enteritidis, S. aureus; up to 128 μg/mL

Structure (SMILES)	spectrum of antimicrobial activity
CC[C@H](C)[C@H](NC(=O)CN)C(=O)N[C@@H](Cc1ccc(O)cc1)C(=O)N[C@H](C(=O)NCC(=O)N[C@@H](CCCNC(=N)N)C(=O)N[C@@H](CC(C)C)C(=O)N[C@@H](CC(C)C)C(=O)N1CCC[C@H]1C(=O)N[C@H](C(=O)N[C@@H](Cc1ccc(O)cc1)C(=O)N[C@H](C(=O)N1CCC[C@H]1C(=O)N[C@@H](CCC(N)=O)C(=O)N1CCC[C@H]1C(=O)N[C@@H](CCCNC(=N)N)C(=O)N1CCC[C@H]1C(=O)N1CCC[C@H]1C(=O)N[C@@H](Cc1c[nH]cn1)C(=O)N1CCC[C@H]1C(=O)N[C@@H](CCCNC(=N)N)C(=O)N[C@@H](CC(C)C)C(=O)N[C@@H](CCCNC(=N)N)C(=O)N[C@@H](CCCNC(=N)N)C(=O)O)[C@@H](C)CC)C(C)C)[C@@H](C)O [ApCe1] (H-GIYTGRLLPVYIPQPRPPHPRLRR-OH; N-terminus and C-terminus assumed)	antimicrobial activity against Gram-negative bacterial species but not Gram-positives
